Assay results taken from ChEMBL document CHEMBL2401662, “The synthesis of neurotensin antagonist SR 48692 for prostate cancer research” (Bioorg Med Chem, 2013).
Activity calls are given as the source filed them. The rule behind the calls is not given here.

Columns and labels:
[1] = molecular target: Neurotensin receptor type 1 (Rattus norvegicus, UniProt P20789); assay: Displacement of [125I]NT from rat NTR1 transfected in mouse LTK cells; type: cell-based
[2] = molecular target: Neurotensin receptor type 2 (Homo sapiens, UniProt O95665); assay: Binding affinity to NTR2 (unknown origin)
[3] = molecular target: T1, Sortilin (Homo sapiens, UniProt Q99523); assay: Binding affinity to NTR3 (unknown origin)
T1 sequence (Q99523 whole entry): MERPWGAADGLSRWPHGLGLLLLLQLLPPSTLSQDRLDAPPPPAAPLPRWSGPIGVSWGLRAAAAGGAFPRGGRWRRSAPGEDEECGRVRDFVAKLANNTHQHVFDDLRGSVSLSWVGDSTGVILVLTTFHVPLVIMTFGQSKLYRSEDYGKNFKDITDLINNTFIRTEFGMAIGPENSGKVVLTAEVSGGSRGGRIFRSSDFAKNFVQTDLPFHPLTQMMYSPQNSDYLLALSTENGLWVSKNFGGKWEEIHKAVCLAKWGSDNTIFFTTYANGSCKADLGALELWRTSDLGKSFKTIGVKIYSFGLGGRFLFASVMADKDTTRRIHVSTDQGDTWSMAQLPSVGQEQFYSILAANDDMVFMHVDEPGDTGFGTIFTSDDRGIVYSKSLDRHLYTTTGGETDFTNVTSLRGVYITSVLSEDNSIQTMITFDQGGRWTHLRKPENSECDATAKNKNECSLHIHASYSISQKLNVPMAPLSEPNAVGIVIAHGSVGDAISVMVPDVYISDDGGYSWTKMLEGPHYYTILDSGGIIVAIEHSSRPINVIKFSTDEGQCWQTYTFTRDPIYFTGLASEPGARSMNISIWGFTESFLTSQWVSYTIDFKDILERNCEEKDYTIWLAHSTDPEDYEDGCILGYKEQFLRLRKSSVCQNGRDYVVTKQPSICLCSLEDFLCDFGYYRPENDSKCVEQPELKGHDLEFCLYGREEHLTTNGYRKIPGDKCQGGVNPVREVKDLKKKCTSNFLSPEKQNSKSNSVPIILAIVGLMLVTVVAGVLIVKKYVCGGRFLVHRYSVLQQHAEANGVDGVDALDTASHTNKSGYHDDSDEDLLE

[4] = tested on: LNCaP; assay: Cytotoxicity against human biculamide-resistant LNCAP cells at >/= 50 uM after 5 days by CellTitre Glo assay; type: functional, cell-based
[5] = tested on: LNCaP C4-2B; assay: Cytotoxicity against human C4-2B cells at >/= 50 uM after 5 days by CellTitre Glo assay; type: functional, cell-based
[6] = tested on: LNCaP; assay: Cytotoxicity against human LNCAP cells at >/= 50 uM after 5 days by CellTitre Glo assay; type: functional, cell-based
[7] = Cytotoxicity against human C4-2B cells after 5 days by CellTitre Glo assay; type: functional, cell-based; conditions: LNCaP C4-2B, 120 h
[8] = tested on: SK-OV-3; assay: Cytotoxicity against human SKOV3 cells at 100 uM by MTS assay; type: functional, cell-based
[9] = tested on: SK-OV-3; assay: Cytotoxicity against human SKOV3 cells at < 100 uM by MTS assay; type: functional, cell-based

Neurotensin receptor type 1, sequence (P20789 whole entry): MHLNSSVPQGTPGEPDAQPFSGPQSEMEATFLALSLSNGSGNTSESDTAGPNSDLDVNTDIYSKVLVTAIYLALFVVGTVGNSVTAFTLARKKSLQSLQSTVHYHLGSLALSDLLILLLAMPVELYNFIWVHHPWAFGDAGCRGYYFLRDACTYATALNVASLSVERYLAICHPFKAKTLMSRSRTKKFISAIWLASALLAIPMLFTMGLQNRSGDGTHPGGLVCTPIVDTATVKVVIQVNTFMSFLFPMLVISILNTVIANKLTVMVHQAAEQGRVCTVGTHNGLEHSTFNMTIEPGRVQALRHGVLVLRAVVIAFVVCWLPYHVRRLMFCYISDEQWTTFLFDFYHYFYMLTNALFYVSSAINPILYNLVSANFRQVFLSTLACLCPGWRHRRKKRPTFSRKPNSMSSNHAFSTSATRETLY
Neurotensin receptor type 2, sequence (O95665 whole entry): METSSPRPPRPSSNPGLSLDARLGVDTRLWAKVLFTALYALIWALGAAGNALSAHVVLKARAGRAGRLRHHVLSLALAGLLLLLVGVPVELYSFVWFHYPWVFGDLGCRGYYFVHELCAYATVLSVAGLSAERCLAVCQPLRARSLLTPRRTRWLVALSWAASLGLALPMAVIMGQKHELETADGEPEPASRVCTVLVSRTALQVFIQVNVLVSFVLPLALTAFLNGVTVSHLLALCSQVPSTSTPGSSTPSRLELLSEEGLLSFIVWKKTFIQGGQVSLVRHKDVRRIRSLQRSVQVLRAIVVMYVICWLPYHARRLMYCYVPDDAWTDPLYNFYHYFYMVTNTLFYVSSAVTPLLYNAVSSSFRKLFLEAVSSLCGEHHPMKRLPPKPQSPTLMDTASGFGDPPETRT

- Ki [1]: 2.6 nM
- Ki [2]: 418 nM
- IC50 [3]: 238 nM
Compound: COc1cccc(OC)c1-c1cc(C(=O)NC2(C(=O)O)C3CC4CC(C3)CC2C4)nn1-c1ccnc2cc(Cl)ccc12 (centres undefined) [REMINERTANT]
- Activity [4]: Active
- Activity [5]: Active
- Activity [6]: Active
- IC50 [7]: 30000 nM
- Activity [8]: Active
- Activity [9]: inactive
